From ChEMBL document CHEMBL2150912, “Discovery of novel dihydroimidazothiazole derivatives as p53-MDM2 protein-protein interaction inhibitors: synthesis, biological evaluation and structure-activity relationships” (Bioorg Med Chem Lett, 2012)

Biological target: E3 ubiquitin-protein ligase Mdm2 (Homo sapiens, UniProt Q00987)
Test: Inhibition of GST-tagged MDM2 binding to p53 by ELISA

E3 ubiquitin-protein ligase Mdm2, sequence (Q00987 whole entry): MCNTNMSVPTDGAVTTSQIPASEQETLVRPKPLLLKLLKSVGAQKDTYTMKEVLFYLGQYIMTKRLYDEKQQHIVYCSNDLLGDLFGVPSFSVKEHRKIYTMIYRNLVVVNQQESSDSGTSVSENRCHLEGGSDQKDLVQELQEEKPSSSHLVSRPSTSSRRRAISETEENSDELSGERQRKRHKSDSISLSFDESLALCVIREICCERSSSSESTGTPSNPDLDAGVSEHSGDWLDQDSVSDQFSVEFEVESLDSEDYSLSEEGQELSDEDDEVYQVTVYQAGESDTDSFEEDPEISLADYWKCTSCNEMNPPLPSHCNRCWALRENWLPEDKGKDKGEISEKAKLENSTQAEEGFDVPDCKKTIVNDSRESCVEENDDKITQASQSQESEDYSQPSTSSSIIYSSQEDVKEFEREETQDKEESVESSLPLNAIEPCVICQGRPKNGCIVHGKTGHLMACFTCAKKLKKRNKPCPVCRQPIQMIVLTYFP

Row | IC50 [µM] | SMILES
1 | 7.1 | COCC1=C(C(=O)N2CCNC(=O)C2)SC2=N[C@@H](c3ccc(Cl)cc3)[C@@H](c3ccc(Cl)cc3)N21 (racemic)
2 | 2.7 | CC1=C(C(=O)N2CCNC(=O)C2)SC2=N[C@@H](c3ccc(Cl)cc3)[C@@H](c3ccc(Cl)cc3)N21 (racemic)
3 | 1.8 | CCC1=C(C(=O)N2CCNC(=O)C2)SC2=N[C@@H](c3ccc(Cl)cc3)[C@@H](c3ccc(Cl)cc3)N21 (racemic)
4 | 0.26 | CC(C)C1=C(C(=O)N2CCNC(=O)C2)SC2=N[C@@H](c3ccc(Cl)cc3)[C@@H](c3ccc(Cl)cc3)N21 (racemic)
5 | 3.1 | CCCC1=C(C(=O)N2CCNC(=O)C2)SC2=N[C@@H](c3ccc(Cl)cc3)[C@@H](c3ccc(Cl)cc3)N21 (racemic)
6 | 9.5 | O=C1CN(C(=O)C2=C(C3CC3)N3C(=N[C@@H](c4ccc(Cl)cc4)[C@H]3c3ccc(Cl)cc3)S2)CCN1 (racemic)
7 | 3 | CC(C)(C)C1=C(C(=O)N2CCNC(=O)C2)SC2=N[C@@H](c3ccc(Cl)cc3)[C@@H](c3ccc(Cl)cc3)N21 (racemic)
8 | 0.84 | CC(=O)N1CCN(C(=O)C2=C(C(C)C)N3C(=N[C@@H](c4ccc(Cl)cc4)[C@H]3c3ccc(Cl)cc3)S2)CC1 (racemic)
9 | 4.4 | CC(C)C1=C(C(=O)N2CCC(C(=O)N(C)C)CC2)SC2=N[C@@H](c3ccc(Cl)cc3)[C@@H](c3ccc(Cl)cc3)N21 (racemic)
10 | 0.34 | CC(C)C1=C(C(=O)N2CCOCC2)SC2=N[C@@H](c3ccc(Cl)cc3)[C@@H](c3ccc(Cl)cc3)N21 (racemic)
11 | 1.1 | CC(C)C1=C(C(=O)N2CCNC(=O)CC2)SC2=N[C@@H](c3ccc(Cl)cc3)[C@@H](c3ccc(Cl)cc3)N21 (racemic)
12 | 1.8 | CC(C)C1=C(C(=O)N2CCN(CCO)CC2)SC2=N[C@@H](c3ccc(Cl)cc3)[C@@H](c3ccc(Cl)cc3)N21 (racemic)
13 | 1.2 | CC(C)C1=C(C(=O)N2CCN(C)CC2)SC2=N[C@@H](c3ccc(Cl)cc3)[C@@H](c3ccc(Cl)cc3)N21 (racemic)
14 | 0.14 | CC(C)C1=C(C(=O)N2C[C@@H](C)N[C@@H](C)C2)SC2=N[C@@H](c3ccc(Cl)cc3)[C@@H](c3ccc(Cl)cc3)N21 (racemic)
15 | 0.16 | CC(C)C1=C(C(=O)N2CCNC(=O)C2)SC2=NC(c3ccc(Cl)cc3)C(c3ccc(Cl)cc3)N21 (single isomer, unassigned; (+))
16 | 11.9 | CC(C)C1=C(C(=O)N2CCNC(=O)C2)SC2=NC(c3ccc(Cl)cc3)C(c3ccc(Cl)cc3)N21 (single isomer, unassigned; (-))
